Data: patent publication US10993983B2, “Cyclic peptide epitopes and small-molecule mimics for inducing autophagy” (TRUSTEES OF TUFTS COLLEGE, priority 2016, dated 2021)
Values joined by “and” are separate entries in the source; they are usually repeats but may differ in a detail not shown here. Identical values can stand only once. Marks after values point to notes of the source that are not given here.

What was measured:
Assay type in all cases: cell-based
HeLa cells = assay: Autophagy induction judged by p62 and LC3 immunoblots together; parameters: key to Activity compared to wild-type WT / Activity (μM) 10, single symbol / Activity (μM) 30, single symbol / Activity (μM) 50, single symbol / Activity (μM) 100, single symbol: −: activity not reported; 0: decreased vs. WT; +: similar to WT; ++: modest increase vs. WT; +++: significant increase vs. WT; details: for Activity (μM) 10, single symbol: 10 μM; for Activity (μM) 30, single symbol: 30 μM; for Activity (μM) 50, single symbol: 50 μM; for Activity (μM) 100, single symbol: 100 μM
Procedure: This 10-mer sequence was substituted with various thiol-containing amino acids at various positions, and then cross-linked with various linkers as described above (FIG. 5, a and FIG. 6).
Cells were treated with peptide in OPTI-MEM (Thermo Scientific) acidified with 0.15% (v/v) 6N HCl for 3 hour. Cells were rinsed with Dulbecco's phosphate buffered saline (PBS) and lysed in lysis buffer (20 mM HEPES, 150 mM NaCl, 1 mM EDTA, 1% Triton X-100, protease inhibitor cocktail (Roche) on ice for 1 hour. Cell lysates were centrifuged at 16,000 g for 10 min at 4° C. and analyzed by SDS-PAGE and transferred to PVDF membranes. The membranes were blocked 5% non-fat dry milk (NFDM) in PBST (PBS+0.05% Tween-20) for 1 hour, then incubated overnight at 4° C. with primary antibody in 5% NFDM in PBST. The blots were washed with PBST and incubated with HRP-conjugated secondary antibodies diluted in 5% NFDM in PBST for 1 hour at room temperature. Membranes were washed with PBST and visualized with SuperSignal West Pico Chemiluminescent Substrate (Thermo Scientific). Semi-quantitative results were obtained by noting the lowest concentration at which both p62 degradation and LC3-I to LC3-II conversion were observed.
(SEQ ID NO: 16)-Sequence. […] The N-terminus was capped with an acetyl group while the C terminus was capped with a —C(O)—NH2 group. The activity reported is a summation of results from both the p62 degradation assay and the LC3 marker assay.

LC3 = LC3 marker assay (LC3-I to LC3-II conversion immunoblot); parameters: key: −: activity not reported; 0: decreased vs. WT; +: similar to WT; ++: modest increase vs. WT; +++: significant increase vs. WT; details: for Activity (μM) 10, LC3 assay activity: 10 μM; for Activity (μM) 20, LC3 assay activity: 20 μM; for Activity (μM) 30, LC3 assay activity: 30 μM; for Activity (μM) 50, LC3 assay activity: 50 μM; for Activity (μM) 100, LC3 assay activity: 100 μM; for Activity (μM) 10, starred cell, LC3 assay activity: 10 μM marked * (footnote: data taken at 20 instead of 30 μM)
p62 = p62 degradation assay (p62/actin immunoblot); parameters: key: −: activity not reported; 0: decreased vs. WT; +: similar to WT; ++: modest increase vs. WT; +++: significant increase vs. WT; details: for Activity (μM) 10, p62/actin assay activity: 10 μM; for Activity (μM) 20, p62/actin assay activity: 20 μM; for Activity (μM) 30, p62/actin assay activity: 30 μM; for Activity (μM) 50, p62/actin assay activity: 50 μM; for Activity (μM) 100, p62/actin assay activity: 100 μM; for Activity (μM) 10, starred cell, p62/actin assay activity: 10 μM marked * (footnote: data taken at 20 instead of 30 μM)
[1] = Table 4, starred rows (asterisk not explained)
[2] = Table 3, control vehicle, second symbol of cell
[3] = Table 4, control inactive Tat-Beclin mutant, second symbol
[4] = Table 3, control vehicle, second symbol
[5] = Table 8, control compound T25, second symbol
[6] = Table 3, control vehicle, first symbol of cell
[7] = Table 4, control inactive Tat-Beclin mutant, first symbol
[8] = Table 3, control vehicle, first symbol
[9] = Table 8, control compound T25, first symbol
[10] = Table 5, control compound T25, second symbol
[11] = Table 6, control DMSO, second symbol
[12] = Table 5, control compound T25, first symbol
[13] = Table 6, control DMSO, first symbol

Sequence: VCNACFHIWH [Compound 3]
- Activity (μM) 10, single symbol (HeLa cells; [1]): 0
- Activity (μM) 30, single symbol (HeLa cells; [1]): 0
- Activity (μM) 50, single symbol (HeLa cells; [1]): 0
- Activity (μM) 100, single symbol (HeLa cells; [1]): 0
- Activity (μM) 10, LC3 assay activity (LC3; [2]): 0/0
- Activity (μM) 10, LC3 assay activity (LC3; [3]): ++
- Activity (μM) 20, LC3 assay activity (LC3; [4]): +++
- Activity (μM) 30, LC3 assay activity (LC3; [3]): +++
- Activity (μM) 30, LC3 assay activity (LC3; [5]): 0/0
- Activity (μM) 50, LC3 assay activity (LC3; [4]): +++
- Activity (μM) 50, LC3 assay activity (LC3; [3]): +
- Activity (μM) 50, LC3 assay activity (LC3; [5]): 0 and +++/+++
- Activity (μM) 100, LC3 assay activity (LC3; [4]): +++/+++
- Activity (μM) 100, LC3 assay activity (LC3; [3]): 0/0
- Activity (μM) 100, LC3 assay activity (LC3; [5]): +++/+++
- Activity (μM) 10, starred cell, LC3 assay activity (LC3; Table 8, second symbol): 0/0*
- Activity (μM) 10, p62/actin assay activity (p62; [6]): 0/0
- Activity (μM) 10, p62/actin assay activity (p62; [7]): 0
- Activity (μM) 20, p62/actin assay activity (p62; [8]): +
- Activity (μM) 30, p62/actin assay activity (p62; [7]): 0
- Activity (μM) 30, p62/actin assay activity (p62; [9]): 0/0
- Activity (μM) 50, p62/actin assay activity (p62; [8]): ++
- Activity (μM) 50, p62/actin assay activity (p62; [7]): 0
- Activity (μM) 50, p62/actin assay activity (p62; [9]): + and +++/+++
- Activity (μM) 100, p62/actin assay activity (p62; [8]): +++/+++
- Activity (μM) 100, p62/actin assay activity (p62; [7]): 0/0
- Activity (μM) 100, p62/actin assay activity (p62; [9]): +++/+++
- Activity (μM) 10, starred cell, p62/actin assay activity (p62; Table 8, first symbol): 0/0*

Sequence: VCNATCHIWH [Compound 15]
- Activity (μM) 10, single symbol (HeLa cells; Table 5): 0
- Activity (μM) 30, single symbol (HeLa cells; Table 5): +
- Activity (μM) 50, single symbol (HeLa cells; Table 5): +++
- Activity (μM) 100, single symbol (HeLa cells; Table 5): +++
- Activity (μM) 10, LC3 assay activity (LC3; [10]): 0/0
- Activity (μM) 10, LC3 assay activity (LC3; [11]): ++/++
- Activity (μM) 30, LC3 assay activity (LC3; [10]): +/+
- Activity (μM) 30, LC3 assay activity (LC3; [11]): +
- Activity (μM) 50, LC3 assay activity (LC3; [10]): ++/++
- Activity (μM) 50, LC3 assay activity (LC3; [11]): +
- Activity (μM) 100, LC3 assay activity (LC3; [10]): +++/+++
- Activity (μM) 100, LC3 assay activity (LC3; [11]): +
- Activity (μM) 10, p62/actin assay activity (p62; [12]): 0/0
- Activity (μM) 10, p62/actin assay activity (p62; [13]): ++/++
- Activity (μM) 30, p62/actin assay activity (p62; [12]): +/+
- Activity (μM) 30, p62/actin assay activity (p62; [13]): +++
- Activity (μM) 50, p62/actin assay activity (p62; [12]): ++/++
- Activity (μM) 50, p62/actin assay activity (p62; [13]): +++
- Activity (μM) 100, p62/actin assay activity (p62; [12]): +++/+++
- Activity (μM) 100, p62/actin assay activity (p62; [13]): +++

Sequence: VCNATCHIWH [Compound 1]
- Activity (μM) 10, single symbol (HeLa cells; [1]): 0
- Activity (μM) 30, single symbol (HeLa cells; [1]): 0
- Activity (μM) 50, single symbol (HeLa cells; [1]): 0
- Activity (μM) 100, single symbol (HeLa cells; [1]): 0
- Activity (μM) 10, LC3 assay activity (LC3; [2]): 0/0
- Activity (μM) 10, LC3 assay activity (LC3; [3]): 0/0
- Activity (μM) 20, LC3 assay activity (LC3; [4]): 0/0
- Activity (μM) 30, LC3 assay activity (LC3; [3]): +
- Activity (μM) 30, LC3 assay activity (LC3; [5]): 0/0 and +++
- Activity (μM) 50, LC3 assay activity (LC3; [4]): 0/0
- Activity (μM) 50, LC3 assay activity (LC3; [3]): ++
- Activity (μM) 50, LC3 assay activity (LC3; [5]): 0/0 and +++/+++
- Activity (μM) 100, LC3 assay activity (LC3; [4]): +
- Activity (μM) 100, LC3 assay activity (LC3; [5]): +
- Activity (μM) 10, starred cell, LC3 assay activity (LC3; Table 8, second symbol): 0/0* and +
- Activity (μM) 10, p62/actin assay activity (p62; [6]): 0/0
- Activity (μM) 10, p62/actin assay activity (p62; [7]): 0/0
- Activity (μM) 20, p62/actin assay activity (p62; [8]): 0/0
- Activity (μM) 30, p62/actin assay activity (p62; [7]): 0
- Activity (μM) 30, p62/actin assay activity (p62; [9]): 0/0 and ++
- Activity (μM) 50, p62/actin assay activity (p62; [8]): 0/0
- Activity (μM) 50, p62/actin assay activity (p62; [7]): 0
- Activity (μM) 50, p62/actin assay activity (p62; [9]): 0/0 and +++/+++
- Activity (μM) 100, p62/actin assay activity (p62; [8]): +++
- Activity (μM) 100, p62/actin assay activity (p62; [7]): 0
- Activity (μM) 100, p62/actin assay activity (p62; [9]): +++
- Activity (μM) 10, starred cell, p62/actin assay activity (p62; Table 8, first symbol): 0/0* and 0

Sequence: VFNATFEIWH [Compound T25]
- Activity (μM) 30, single symbol (HeLa cells; Table 7, one symbol only): +++
- Activity compared to wild-type WT (HeLa cells; Tat-linked linear peptides, summation of p62 degradation assay and LC3 marker assay): ++
- Activity (μM) 5, LC3 assay activity (LC3; 5 μM, Table 8, control compound T25, second symbol): +++
- Activity (μM) 10, LC3 assay activity (LC3; [5]): +++
- Activity (μM) 30, starred cell, LC3 assay activity (LC3; Table 8, *Data taken at 20 instead of 30 μM, second symbol): +++/+++*
- Activity (μM) 5, p62/actin assay activity (p62; 5 μM, Table 8, control compound T25, first symbol): ++
- Activity (μM) 10, p62/actin assay activity (p62; [9]): ++
- Activity (μM) 30, starred cell, p62/actin assay activity (p62; Table 8, *Data taken at 20 instead of 30 μM, first symbol): +++/+++*
